# Data: the NIST ThermoML archive (doi:10.1016/j.tca.2015.09.023)
# ± gives the expanded uncertainty stated by the source.
# How the values were obtained:
# [1] = Crystal; DTA
# [2] = Molar enthalpy of transition or fusion; settings: Crystal; DSC
smiles,measurement,setting,value
CN1C(=O)N[C@H]2[C@@H]1NC(=O)N2C (racemic),Normal melting temperature,[1],277.1 ± 0.4 °C
same,Molar enthalpy of transition or fusion,[2],5.83 ± 0.167 kcal/mol
CN1C(=O)N[C@@H]2NC(=O)N[C@@H]21 (racemic),Normal melting temperature,[1],261.6 ± 0.4 °C
same,Molar enthalpy of transition or fusion,[2],8.15 ± 0.191 kcal/mol
CN1C(=O)N[C@H]2[C@@H]1N(C)C(=O)N2C (racemic),Normal melting temperature,[1],92.6 ± 0.4 °C
same,Molar enthalpy of transition or fusion,[2],4.8 ± 0.167 kcal/mol
